Test results as given in ChEMBL document CHEMBL1151980, “Tubulin-interactive natural products as anticancer agents” (2009).

Tested on: B16
Test: In vivo antitumor activity against mouse B16 cells assessed as increase in life span
Format: functional

CC(=O)O[C@H]1C(=O)[C@@]2(C)[C@H]([C@H](OC(=O)c3ccccc3)[C@]3(O)C[C@H](OC(=O)[C@H](O)[C@@H](NC(=O)c4ccccc4)c4ccccc4)C(C)=C1C3(C)C)[C@]1(OC(C)=O)CO[C@@H]1C[C@@H]2O [PACLITAXEL]
Activity: 32%
